# Key:
# heteromeric TRPC4:TRPC1 = molecular target: T1, heteromeric TRPC4:TRPC1 (Homo sapiens, UniProt Q9UBN4); assay: Whole-cell recordings, HEK293 co-expressing TRPC4 and TRPC1; type: cell-based; details: 30 nM
# T1 construct: expressed in transfected cells; host or cells: HEK293, transiently transfected
# Description: Müller, Niemeyer, et al., Schaefer & Thorn-Seshold 2025: Ideal Efficacy Photoswitching of TRPC4/5 in Tissue 3.3 Activation of heteromeric TRPC4:TRPC1 and TRPC5:TRPC1
# Supplementary Figure 15: Photoswitching of ionic currents through heteromeric TRPC4:TRPC1 and TRPC5:TRPC1 channel complexes. Whole cell recordings from HEK293 cells that were transiently transfected to express the indicated TRPC isoforms were obtained in the whole cell mode with a voltage and photoswitching paradigm as illustrated in (A). (B-D) Superimposed recordings of 20 consecutive sweeps are shown for cells that ony express TRPC4 or TRPC5 (left), and for cells that co-express the respective TRPC channel along with TRPC1 (right). Note the characteristic change of the current-voltage relationship with smaller inward currents and stronger outward rectification in cells that co-express TRPC1. […]
# or 10 nM (all other panels). The data shown are representative for 4-12 patched cells, each.
# Currents through heteromeric complexes that are composed of TRPC4:TRPC1 or TRPC5:TRPC1 subunits can be unequivocally recognized on the basis of their unique biophysical properties with smaller unitary and global inward current amplitudes and a marked outward rectification.44 We show […]
# also the heteromeric complexes TRPC5:TRPC1 and TRPC4:TRPC1 that are formed upon co-expression with TRPC1 (Supplementary Fig. 15). […]
# PSS E/Z ratios by HPLC = type: physicochemical; details: for PSS % E at 330 nm / PSS % E at 340 nm / PSS % E at 350 nm / PSS % E at 360 nm / PSS % E at 370 nm / PSS % E at 380 nm / PSS % E at 390 nm / PSS % E at 400 nm / PSS % E at 410 nm / PSS % E at 420 nm / PSS % E at 430 nm / PSS % E at 440 nm / PSS % E at 450 nm / PSS % E at 460 nm / PSS % E at 470 nm / PSS % E at 480 nm / PSS % E at 490 nm / PSS % E at 500 nm / PSS % Z at 330 nm / PSS % Z at 340 nm / PSS % Z at 350 nm / PSS % Z at 360 nm / PSS % Z at 370 nm / PSS % Z at 380 nm / PSS % Z at 390 nm / PSS % Z at 400 nm / PSS % Z at 410 nm / PSS % Z at 420 nm / PSS % Z at 430 nm / PSS % Z at 440 nm / PSS % Z at 450 nm / PSS % Z at 460 nm / PSS % Z at 470 nm / PSS % Z at 480 nm / PSS % Z at 490 nm / PSS % Z at 500 nm: monochromator, HPLC integration (296 nm)
# Experimental: UV-VIS. UV-Vis spectra were recorded on an Agilent Cary 60 UV-Vis spectrophotometer using 1 cm quartz or PMMA cuvettes. All photoisomerisations were performed at room temperature in non-degassed solvents unless stated differently. Samples were irradiated with either a CoolLED pE-4000 or Polycon V monochromator (TILL Photonics, Gräfelfing, Germany) by shining from the […]
# differently, all measurements were performed at a default concentration of 20 μM. Dark state refers […]
# methods followed standard practices39–41. All-E and PSS spectra are shown in Supplementary […]
# HPLC for PSS E/Z ratios. Analytical HPLC was performed on an Agilent 1200 SL with (a) a binary pump able to deliver H2O:MeCN eluent mixtures containing 0.1% formic acid at a 1 mL/min flow rate [for PSS measurements of final compounds, only MeCN was used], (b) YMC Carotenoid 5 µm, […]
# (100 µM, MeCN) in HPLC vials were irradiated for at least 6 min from top with the monochromator […]
# separate well); PSS ratio was then determined by integrating the signal at an isosbestic region
# T1 sequence (Q9UBN4 whole entry): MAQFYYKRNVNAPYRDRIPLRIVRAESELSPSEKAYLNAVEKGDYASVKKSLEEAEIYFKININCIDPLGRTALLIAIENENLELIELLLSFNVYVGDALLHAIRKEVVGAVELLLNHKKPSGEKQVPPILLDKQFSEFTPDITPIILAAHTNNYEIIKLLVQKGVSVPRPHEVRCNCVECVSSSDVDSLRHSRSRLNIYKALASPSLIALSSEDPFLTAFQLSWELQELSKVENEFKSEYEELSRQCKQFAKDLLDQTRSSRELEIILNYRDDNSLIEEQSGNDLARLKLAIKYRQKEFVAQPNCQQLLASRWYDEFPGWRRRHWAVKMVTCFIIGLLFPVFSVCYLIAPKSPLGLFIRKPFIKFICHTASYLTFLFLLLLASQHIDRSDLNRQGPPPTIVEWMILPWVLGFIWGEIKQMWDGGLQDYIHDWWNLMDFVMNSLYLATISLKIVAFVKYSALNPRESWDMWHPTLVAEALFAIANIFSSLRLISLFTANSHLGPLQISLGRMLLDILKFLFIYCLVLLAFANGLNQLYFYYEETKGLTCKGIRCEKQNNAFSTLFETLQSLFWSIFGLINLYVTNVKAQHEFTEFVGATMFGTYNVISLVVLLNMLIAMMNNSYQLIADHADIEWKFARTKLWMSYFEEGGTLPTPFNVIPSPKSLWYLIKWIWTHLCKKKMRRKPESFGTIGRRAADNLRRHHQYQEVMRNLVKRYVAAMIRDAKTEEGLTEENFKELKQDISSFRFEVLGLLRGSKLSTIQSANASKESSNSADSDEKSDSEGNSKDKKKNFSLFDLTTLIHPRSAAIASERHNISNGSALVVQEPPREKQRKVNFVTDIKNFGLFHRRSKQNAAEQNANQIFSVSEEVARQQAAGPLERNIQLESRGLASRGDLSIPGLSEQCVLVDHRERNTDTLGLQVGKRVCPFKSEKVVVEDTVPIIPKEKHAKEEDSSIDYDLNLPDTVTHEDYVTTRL
# T1 sequence (P48995 whole entry partner): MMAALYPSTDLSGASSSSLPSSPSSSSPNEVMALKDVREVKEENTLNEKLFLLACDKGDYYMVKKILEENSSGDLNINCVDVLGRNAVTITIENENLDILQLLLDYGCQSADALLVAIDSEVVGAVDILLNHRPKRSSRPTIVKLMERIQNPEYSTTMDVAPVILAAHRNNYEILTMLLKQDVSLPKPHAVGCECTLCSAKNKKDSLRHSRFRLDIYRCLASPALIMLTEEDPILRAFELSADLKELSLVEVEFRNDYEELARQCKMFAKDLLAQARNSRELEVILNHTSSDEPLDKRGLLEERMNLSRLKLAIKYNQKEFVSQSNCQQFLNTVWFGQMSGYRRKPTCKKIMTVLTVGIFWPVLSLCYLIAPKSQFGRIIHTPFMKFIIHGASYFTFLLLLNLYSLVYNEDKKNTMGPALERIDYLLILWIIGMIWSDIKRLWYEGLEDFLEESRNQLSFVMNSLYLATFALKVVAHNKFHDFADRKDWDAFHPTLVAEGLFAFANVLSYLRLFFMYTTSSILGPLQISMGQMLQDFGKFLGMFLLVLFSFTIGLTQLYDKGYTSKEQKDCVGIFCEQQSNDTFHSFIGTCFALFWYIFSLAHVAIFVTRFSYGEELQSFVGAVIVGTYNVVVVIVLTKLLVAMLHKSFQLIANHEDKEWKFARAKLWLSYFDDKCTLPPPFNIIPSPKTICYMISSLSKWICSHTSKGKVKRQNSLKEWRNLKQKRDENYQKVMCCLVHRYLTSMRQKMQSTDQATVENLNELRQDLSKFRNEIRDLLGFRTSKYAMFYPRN
smiles,measurement,setting,value
Cn1c(=O)n(CCCO)c(=O)c2c1nc(Oc1ccc(N=Nc3ccccc3)c(Cl)c1)n2Cc1ccc(Cl)cc1 [AzHC],Chromocontrol over heteromeric TRPC4:TRPC1 currents versus homomeric channels,heteromeric TRPC4:TRPC1,comparable chromocontrol
same,PSS %E around 410 nm,PSS E/Z ratios by HPLC,~ 82%
same,PSS %Z around 360 nm,PSS E/Z ratios by HPLC,95%
same,PSS % E at 330 nm,PSS E/Z ratios by HPLC,21%
same,PSS % E at 340 nm,PSS E/Z ratios by HPLC,6%
same,PSS % E at 350 nm,PSS E/Z ratios by HPLC,4%
same,PSS % E at 360 nm,PSS E/Z ratios by HPLC,4%
same,PSS % E at 370 nm,PSS E/Z ratios by HPLC,7%
same,PSS % E at 380 nm,PSS E/Z ratios by HPLC,23%
same,PSS % E at 390 nm,PSS E/Z ratios by HPLC,52%
same,PSS % E at 400 nm,PSS E/Z ratios by HPLC,74%
same,PSS % E at 410 nm,PSS E/Z ratios by HPLC,81%
same,PSS % E at 420 nm,PSS E/Z ratios by HPLC,80%
same,PSS % E at 430 nm,PSS E/Z ratios by HPLC,79%
same,PSS % E at 440 nm,PSS E/Z ratios by HPLC,76%
same,PSS % E at 450 nm,PSS E/Z ratios by HPLC,72%
same,PSS % E at 460 nm,PSS E/Z ratios by HPLC,68%
same,PSS % E at 470 nm,PSS E/Z ratios by HPLC,63%
same,PSS % E at 480 nm,PSS E/Z ratios by HPLC,59%
same,PSS % E at 490 nm,PSS E/Z ratios by HPLC,55%
same,PSS % E at 500 nm,PSS E/Z ratios by HPLC,52%
same,PSS % Z at 330 nm,PSS E/Z ratios by HPLC,79%
same,PSS % Z at 340 nm,PSS E/Z ratios by HPLC,94%
same,PSS % Z at 350 nm,PSS E/Z ratios by HPLC,96%
same,PSS % Z at 360 nm,PSS E/Z ratios by HPLC,96%
same,PSS % Z at 370 nm,PSS E/Z ratios by HPLC,93%
same,PSS % Z at 380 nm,PSS E/Z ratios by HPLC,78%
same,PSS % Z at 390 nm,PSS E/Z ratios by HPLC,48%
same,PSS % Z at 400 nm,PSS E/Z ratios by HPLC,26%
same,PSS % Z at 410 nm,PSS E/Z ratios by HPLC,19%
same,PSS % Z at 420 nm,PSS E/Z ratios by HPLC,20%
same,PSS % Z at 430 nm,PSS E/Z ratios by HPLC,21%
same,PSS % Z at 440 nm,PSS E/Z ratios by HPLC,24%
same,PSS % Z at 450 nm,PSS E/Z ratios by HPLC,28%
same,PSS % Z at 460 nm,PSS E/Z ratios by HPLC,32%
same,PSS % Z at 470 nm,PSS E/Z ratios by HPLC,37%
same,PSS % Z at 480 nm,PSS E/Z ratios by HPLC,41%
same,PSS % Z at 490 nm,PSS E/Z ratios by HPLC,45%
same,PSS % Z at 500 nm,PSS E/Z ratios by HPLC,48%
Cn1c(=O)n(CCCO)c(=O)c2c1nc(Oc1ccc(N=Nc3ccccc3)c(OC(F)(F)F)c1)n2Cc1ccc(Cl)cc1 [AzPico],Chromocontrol over heteromeric TRPC4:TRPC1 currents versus homomeric channels,heteromeric TRPC4:TRPC1,comparable chromocontrol
same,PSS %E around 410 nm,PSS E/Z ratios by HPLC,~ 82%
same,PSS %Z around 360 nm,PSS E/Z ratios by HPLC,95%
same,PSS % E at 330 nm,PSS E/Z ratios by HPLC,16%
same,PSS % E at 340 nm,PSS E/Z ratios by HPLC,8%
same,PSS % E at 350 nm,PSS E/Z ratios by HPLC,5%
same,PSS % E at 360 nm,PSS E/Z ratios by HPLC,5%
same,PSS % E at 370 nm,PSS E/Z ratios by HPLC,11%
same,PSS % E at 380 nm,PSS E/Z ratios by HPLC,23%
same,PSS % E at 390 nm,PSS E/Z ratios by HPLC,38%
same,PSS % E at 400 nm,PSS E/Z ratios by HPLC,79%
same,PSS % E at 410 nm,PSS E/Z ratios by HPLC,84%
same,PSS % E at 420 nm,PSS E/Z ratios by HPLC,84%
same,PSS % E at 430 nm,PSS E/Z ratios by HPLC,82%
same,PSS % E at 440 nm,PSS E/Z ratios by HPLC,80%
same,PSS % E at 450 nm,PSS E/Z ratios by HPLC,77%
same,PSS % E at 460 nm,PSS E/Z ratios by HPLC,74%
same,PSS % E at 470 nm,PSS E/Z ratios by HPLC,70%
same,PSS % E at 480 nm,PSS E/Z ratios by HPLC,67%
same,PSS % E at 490 nm,PSS E/Z ratios by HPLC,64%
same,PSS % E at 500 nm,PSS E/Z ratios by HPLC,61%
same,PSS % Z at 330 nm,PSS E/Z ratios by HPLC,84%
same,PSS % Z at 340 nm,PSS E/Z ratios by HPLC,92%
same,PSS % Z at 350 nm,PSS E/Z ratios by HPLC,95%
same,PSS % Z at 360 nm,PSS E/Z ratios by HPLC,95%
same,PSS % Z at 370 nm,PSS E/Z ratios by HPLC,89%
same,PSS % Z at 380 nm,PSS E/Z ratios by HPLC,77%
same,PSS % Z at 390 nm,PSS E/Z ratios by HPLC,62%
same,PSS % Z at 400 nm,PSS E/Z ratios by HPLC,21%
same,PSS % Z at 410 nm,PSS E/Z ratios by HPLC,16%
same,PSS % Z at 420 nm,PSS E/Z ratios by HPLC,16%
same,PSS % Z at 430 nm,PSS E/Z ratios by HPLC,18%
same,PSS % Z at 440 nm,PSS E/Z ratios by HPLC,20%
same,PSS % Z at 450 nm,PSS E/Z ratios by HPLC,23%
same,PSS % Z at 460 nm,PSS E/Z ratios by HPLC,27%
same,PSS % Z at 470 nm,PSS E/Z ratios by HPLC,30%
same,PSS % Z at 480 nm,PSS E/Z ratios by HPLC,33%
same,PSS % Z at 490 nm,PSS E/Z ratios by HPLC,36%
same,PSS % Z at 500 nm,PSS E/Z ratios by HPLC,39%

# Reference: article PMC12858405, “Ideal efficacy photoswitching for chromocontrol of TRPC4/5 channel functions in live tissues” (Nature Chemical Biology, 2026)
